Experimental data: patent US4443607A, “1(2H)-Isoquinolone compounds and acid addition salts thereof” (priority 1981, dated 1984)
“And” between values parts separate entries of the source, which are not always exact repeats. Equal entries are not always repeated. Structures can show the parent of a compound that is named as a salt.

Key:
gastric secretion = test: Gastric secretion inhibitory activity in pylorus-ligated rats; format: in vivo, Wistar male rats; conditions: for Percent Inhibition (gastric juice) / Percent Inhibition (output secretion) / Amount of Gastric Juice / Amount of Output Secretion: 25 mg/kg into duodenum, 5 h; for Amount of Gastric Juice / Amount of Output Secretion: 10 rats, mean ± SD
Experimental: Five hours after the administration, the rats were sacrificed and gastric juice was collected. The volume and the pH value of the gastric juice and the degree of acid secretion were then determined.

[1] = system: stomach mucous membrane blood flow; test: Blood flow increasing activity on stomach mucous membrane (aminopyrin clearance method); format: in vivo, Wistar male rats; conditions: 3 mg/kg intravenous
Experimental: The cardia and pylorus of Wistar male rats (body weight, 250 to 300 g) which fasted 16 hours before abdominal section were ligated under urethane anesthesia, and a cannula was inserted into the preventriculus. In order to keep the stomach in normal state, the cannula was fixed externally and the incised abdomen was closed. Separately, a cannula filed with heparin was inserted into carotid artery.
After operation, the inside of stomach was thoroughly washed with warm physiological saline solution, and 2 ml of a gastric juice (prepared by adjusting a 5% aqueous solution of mannitol to a pH 3.5 with 0.15 N hydrochloric acid, hereinafter the same) was poured into the stomach. Then, aminopyrin was administered via femoral vein at a dose of 30 mg/kg and 30 minutes thereafter aminopyrin was continuously administered at a rate of 6.6 mg/kg/hour. 45 minutes after the commencement of continuous administration of aminopyrin, 2 ml of the gastric juice warmed at 37° C. was poured into the stomach and collected after 15 minutes.
The collection of gastric juice was conducted at 15 minute intervals and 2 ml of the gastric juice was poured into the stomach between the collections. The total volume of gastric juice collected was 5 ml; 2 ml of the gastric juice was first drawn by syringe pump, 2 ml of the gastric juice was poured into the stomach and then drawn, and finally 1 ml of gastric juice was poured into the stomach and then drawn. 2 ml of the gastric juice drawn (5 ml) was presented to quantitative determination.
Sixty minutes after the commencement of continuous administration of aminopyrin, 0.5 ml of blood was drawn from the carotid artery. Thereafter, 0.5 ml of blood was drawn twice (intermediate and end points of the continuous administration of aminopyrin).
The test compound was administered intravenously immediately after the third collection of gastric juice. […]
Then, the amount of aminopyrin in the blood sample and the gastric juice was determined quantitatively and the volume of blood flow in the stomach mucous membrane per gram of the stomach tissue per minute was calculated.

blood pressure = test: Anti-hypertensive activity in anesthetized cats; format: in vivo; conditions: 5 to 10 mg/kg via femoral vein; urethane anesthesia
Experimental: Cats weighing 3 to 5 kg were anesthetized by intraperitoneal administration of urethane at a dose of 1.5 g/kg. The test compound was administered through a catheter into a femoral vein and the blood pressure was determined by a pressure transducer through a catheter inserted into the femoral artery.

aspirin-induced ulcer = test: Aspirin Ulcer in pylorus-ligated rats; format: in vivo, Wistar male rats; conditions: for Percent Inhibition / Ulcerous Index: aspirin 100 mg/kg oral; for Ulcerous Index: mean ± SE
Experimental: The pylorus of Wistar male rats (body weight, 230 to 250 g) which fasted for 24 hours was ligated and, immediately thereafter, the test compound was administered into the duodenum. 15 hours thereafter, acetylsalicylic acid (Aspirin) was administered orally at a dose of 100 mg/kg. Seven hours after administration of acetylsalicylic acid, the rats were sacrificed and the gastric juice was collected. the stomach was then worked up in the same manner as above to determine the ulcerous index.

stress ulcer [2] = test: Stress Ulcer (1), water-dipping restriction stress, non-fasted rats tied with steel wire; format: in vivo, Wistar male rats; conditions: 50 mg/kg oral
Experimental: The test compound was administered orally to Wistar male rats (body weight, 200 to 230 g) and 30 minutes thereafter the rats were tied up with a steel wire and dipped in water at 23° C. in a tank to the level of the xiphisternum of rats. After leaving the rats in water for 7 hours, the rats were sacrificed and the stomach was extracted. 10 ml of a 1% formalin solution was injected into the stomach cavity and the stomach was dipped in a 1% formalin solution for 15 minutes to semi-harden the stomach.

stress ulcer [3] = test: Stress Ulcer (2), fasted rats in stress cage dipped in water; format: in vivo, Wistar male rats; conditions: for Percent Inhibition / Ulcerous Index: 25 mg/kg oral, fasted 18 h; for Ulcerous Index: 7 h water immersion at 23° C., 7 rats, mean ± SD
Experimental: The test compound was administered orally to Wistar male rats (body weight, 180 to 200 g) which fasted for 18 hours before testing. 30 minutes thereafter, stress was loaded to the rats in a stress cage by dipping the cage into water at 23° C. to the level of the xiphisternum of rats. After leaving the rats in water for 7 hours, the rats were sacrificed and the stomach was extracted. The stomach was then worked up in the same manner as above to determine the ulcerous index.

[4] = system: blood flow in stomach mucous membrane; test: Recovery activity on blood flow decrease in stomach mucous membrane by blood drawing; format: in vivo, Wistar male rats; conditions: 10 mg/kg intravenous
Experimental: Wistar male rats (body weight, 250 to 280 g) fasted for 24 hours and the blood flow in stomach mucous membrane was determined by the aminopyrin clearance method as described above under urethane anesthesia. After determination of blood flow, a blood sample was drawn in an amount equivalent to 3% of the body weight and, 5 minutes thereafter, the blood sample was reinstated. The blood flow was then determined at an interval of 15 minutes. The test compound was administered intravenously 15 minutes after the blood drawing.

SMILES | Percent Inhibition (gastric juice) (gastric secretion) | Percent Inhibition (output secretion) (gastric secretion) | Amount of Gastric Juice (gastric secretion) | Amount of Output Secretion (gastric secretion) | duration of blood pressure lowering activity (blood pressure) | inhibition of ulcer generation (in words) (stress ulcer [2]) | Percent Inhibition (stress ulcer [3]) | Ulcerous Index (stress ulcer [3]) | other results
CN/C(=N/CCSCc1nc[nH]c1C)NC#N [Cimetidine] | 32.7% | 52.6% | 2.26 ± 0.85 mL | 136.6 ± 74.19 μ Eq. | – | – | – | – | –
C=CCN(CC=C)C(C)Cn1cc(-c2ccccc2)c2ccccc2c1=O (stereo not shown) [Compound A, 2-(2-N,N-diallylaminopropyl)-4-phenyl-1(2H)-isoquinolone maleate] | – | – | – | – | more than 2 hours | inhibit the ulcer generation caused by water-dipping restriction stress | – | – | time of maximum percent increase in blood flow [1]: 30 min; stomach mucous membrane blood flow increasing activity (in words) ([1]; 15, 30 and 45 minutes after administration): significance increasing activity on the stomach mucous membrane blood flow; percent increase in blood flow (maximum) ([1]; 30 minutes): about 50%; Percent Inhibition (aspirin-induced ulcer; 10 mg/kg i.d.): 29.41%; Ulcerous Index (aspirin-induced ulcer; 10 mg/kg i.d.): 42.28 ± 2.56 mm; Percent Inhibition (aspirin-induced ulcer; 25 mg/kg i.d.): 42.98%; Ulcerous Index (aspirin-induced ulcer; 25 mg/kg i.d.): 34.15 ± 4.37 mm; Percent Inhibition (aspirin-induced ulcer; 50 mg/kg i.d.): 57.52%; Ulcerous Index (aspirin-induced ulcer; 50 mg/kg i.d.): 25.44 ± 3.41 mm; inhibition of aspirin-induced ulcer (in words) (aspirin-induced ulcer; 10, 25, 50 mg/kg i.d.): inhibits the aspirin-induced ulcer at dose levels of 10, 25, 50 mg/kg, with dependency upon dose; Percent Inhibition (stress ulcer [2]; 7 h water immersion at 23° C.): 62.2% and 75.5%; Ulcerous Index (stress ulcer [2]; 7 h water immersion at 23° C., 6 rats, mean ± SD): 10.5 ± 6.22 mm and 6.8 ± 3.19 mm
C=CCN(CC=C)CC(C)Cn1cc(-c2ccccc2)c2ccccc2c1=O (stereo not shown) [Compound B, 2-(3-N,N-diallylamino-2-methylpropyl)-4-phenyl-1(2H)-isoquinolone hydrochloride] | – | – | – | – | more than 2 hours | inhibit the ulcer generation caused by water-dipping restriction stress | – | – | –
CC(N)Cn1cc(-c2ccccc2)c2ccccc2c1=O.O=C(O)/C=C\C(=O)O (stereo not shown) [Compound C, 2-(2-aminopropyl)-4-phenyl-1(2H)-isoquinolone maleate] | 54.2% | 56.3% | 1.54 ± 0.58 mL | 126.0 ± 40.42 μ Eq. | – | – | 52.8% | 14.6 ± 8.70 mm | stress ulcer inhibitory activity (in words) (stress ulcer [3]; compared with propantheline bromide): substantially equivalent to that of propantheline bromide; gastric secretion inhibitory activity (in words) (gastric secretion; compared with propantheline bromide and Cimetidine): substantially equivalent to that of propantheline bromide but higher than that of Cimetidine; recovery activity on blood flow decrease (in words) [4]: significant recovery activity on blood flow decrease in stomach mucous membrane by blood drawing; Blood Flow in Mucous Membrane, 15 min. ([4]; 15 min., 3 rats, mean ± SD): 88.4 ± 36.9%; Blood Flow in Mucous Membrane, 30 min. ([4]; 30 min., 3 rats, mean ± SD): 92.7 ± 23.5%; Blood Flow in Mucous Membrane, 45 min. ([4]; 45 min., 3 rats, mean ± SD): 98.2 ± 10.2%; Blood Flow in Mucous Membrane, 60 min. ([4]; 60 min., 3 rats, mean ± SD): 101.4 ± 8.8%; Blood Flow in Mucous Membrane, 0 ([4]; time 0 (baseline), 3 rats): 100%
CC(C)[N+](C)(CCOC(=O)C1c2ccccc2Oc2ccccc21)C(C)C [Propantheline Bromide] | 56.5% | 58.8% | 1.46 ± 0.63 mL | 118.8 ± 63.51 μ Eq. | – | – | 51.9% | 14.9 ± 10.67 mm | –
